One assay deals with MDAH-2774 cells. In words: Proliferation assay (cell number by CASY cell counter, doubling time). In kind it is cell-based, human. The following applies: MDAH-2774, HCRP1-silenced vs controls (FIG. 7B). As for the experimental part:
To maintain the logarithmic phase, cells were split at intervals of 48 hours, along with the determination of the cell number by a CASY cell counter (Innovatis AG, Bielefeld, Germany). This procedure was performed in triplicates over a time-span of 6 days and confirmed by a replication of the whole experiment. From the obtained data doubling times (dt) were calculated and depicted as dt-1.

In another assay the test system is SK-OV-3 cells. The description is as above. In kind it is cell-based, human. On the procedure:
The SK-OV-3 cell line was cultured equally the MDAH-2774 cell line except for the use of McCoy's medium. For applying the Tet-Off inducible system, founder cell lines were generated by transfecting SK-OV-3 cells with the pTet-Off vector (neo^r) encoding a tetracyclin repressible transactivator (tTA). Resistant colonies were selected with 200 μg/ml G418 and characterized by transient transfection with the luciferase reporter plasmid (pTRE-Luc), whose promoter is induced by the transactivator. Luciferase activity in the presence and absence of tetracycline was measured to identify cells with maximal promoter inducibility. […] These two founder cell lines were used to establish cells inducible for HCRP1-specific shRNA constructs (Open Biosystems; #V2HS 21202, #V2HS 21203), which were cloned into the SIN-TREmiR30-PIG vector (purr) downstream of the tetracycline inducible promoter. Thus, presence of tetracycline in the culture medium would suppress shRNA expression, while its withdrawal would induce the knock-down of HCRP1. […]
To maintain the logarithmic phase, cells were split at intervals of 48 hours, along with the determination of the cell number by a CASY cell counter (Innovatis AG, Bielefeld, Germany). […] From the obtained data doubling times (dt) were calculated and depicted as dt-1.

SMILES strings stand for the structures. Entries after “also recorded” stand apart in the source; their conditions may differ.

Regarding `CS(=O)(=O)CCNCc1ccc(-c2ccc3ncnc(Nc4ccc(OCc5cccc(F)c5)c(Cl)c4)c3c2)o1` [Lapatinib], the “dependence of the anti-proliferative effect on HCRP1 expression” value in the assay with MDAH-2774 cells is “independent of HCRP1 expression”; in the assay on SK-OV-3 cells (SKOV-3, HCRP1-silenced vs controls (FIG. 7A)), “independent of HCRP1 expression; also recorded: unaffected by HCRP1 expression”. The molecule also had a doubling time in the assay with SK-OV-3 cells (SKOV-3 cells, 4 μM Lapatinib, 6 days, HCRP1 status not specified) of 37.3 h.

The record behind these values is patent publication US20110318344A1, “Tumor Treatment” (MEDIZINISCHE UNIVERSITAET WIEN, priority 2009, published 2011).
